Literature values in PMC7343746, “(2S, 4R)-4-[^18F]Fluoroglutamine for In vivo PET Imaging of Glioma Xenografts in Mice: an Evaluation of Multiple Pharmacokinetic Models” (Molecular Imaging and Biology, 2020).

Tested on: alanine aminotransferase
Design: method as in PMID 22613816
Conditions: cited from earlier work

N[C@@H](C[C@@H]([18F])C(=O)O)C(=O)O [(2S, 4R)-4-[^18F]fluoroglutamate]
Efficiency of processing and defluorination versus non-fluorinated natural counterpart: 5.6 times
